Tested on: CRAC current (ICRAC)
Assay: Whole cell patch-clamp recordings of CRAC current in differentiated CD4+ T cells
Format: cell-based, mouse
Details: for increase in current amplitude following 2-APB application: thapsigargin-pretreated, 2-APB 40 μM, step to −100 mV
Method: CD4^+ T cells were cultured in non-polarizing conditions and harvested at day 5. Patch-clamp recordings were performed using an Axopatch 200 amplifier (Axon Instruments) interfaced to an ITC-18 input/output board (Instrutech) and an iMac G5 computer. Currents were filtered at 1 kHz with a 4-pole Bessel filter and sampled at 5 kHz. Recording electrodes were pulled from 100-μl pipettes, coated with Sylgard, and fire-polished to a final resistance of 2-5 MΩ. Stimulation and data acquisition and analysis were performed using in-house routines developed on the Igor Pro platform (Wavemetrics). All data were corrected for the liquid junction potential of the pipette solution relative to Ringer's in the bath (10 mV) and for leak currents collected in 20 mM [Ca^2+]o+25 μM La^3+. The standard extracellular Ringer solution contained (in mM): 130 NaCl, 4.5 KCl, 20 CaCl2, 1 MgCl2, 10 D-glucose, and 5 Na-Hepes (pH 7.4). In some experiments, 2 mM CaCl2 was used in the standard extracellular solution and the NaCl concentration was raised to 150 mM. The standard divalent-free (DVF) Ringer solutions contained (in mM) 150 NaCl, 10 mM tetraacetic acid, 1 mM EDTA and 10 mM Hepes (pH 7.4). 25 nM charybdotoxin (Sigma) was added to all extracellular solutions to eliminate contamination from Kv1.3 channels. […] Averaged results are presented as the mean value±s.e.m. Curve fitting was done by least-squares methods using built-in functions in Igor Pro 5.0. The permeability of Cs^+ relative to that of Na^+ was calculated from the bionic reversal potential using the relation:

Structure (SMILES) | increase in current amplitude following 2-APB application (STIM2-deficient T cells, n=5) | increase in current amplitude following 2-APB application (control T cells, n=4) | block of Na+ CRAC currents (wild-type mouse T cells, 20 μM Ca2+)
NCCOB(c1ccccc1)c1ccccc1 [2-APB, 2-Aminoethoxydiphenyl borate] | 30±7% | 26±6% | 
[Ca+2] [Ca^2+] |  |  | ~50%
